Results on 29 compounds are retold here after patent US10738007B2, “Amide compounds as kinase inhibitors, compositions and methods of treatment” (TRANSLATIONAL DRUG DEVELOPMENT, LLC, priority 2016, dated 2020).

One assay addresses ROCK2 (Homo sapiens (Human), UniProt O75116). In words: ROCK2 kinase inhibition assay (peptide phosphorylation, LABCHIP 3000). The following applies: 7 μM ATP, 2.5 nM ROCK2, 3 hours at 25° C. Format: biochemical.
In a further assay the test system is MV411 cell line. The experiment in a line: Cell viability assay ([…]-GLO), MV411. Format: cell-based. Conditions: for IC50: MV411 (ITD-FLT3+), 72 hours treatment; for FLT3-ITD+ Selectivity (K562/MV411): ratio K562/MV411.
For another assay, the system named is K562 cell line. In words: Cell viability assay ([…]-GLO), K562. Format: cell-based. The following applies: K562 (does not express ITD-FLT3), 72 hours treatment. As to the method:
Cell viability in the presence of varying concentrations of the above listed compounds at different time points was used to assess cytotoxicity and the effect of the compounds on cell proliferation.
Cell viability was measured by the […]-GlO® cell viability assay from Promega (Madison, Wis.). The […]-GlO Luminescent Cell Viability Assay is a homogeneous method to determine the number of viable cells in culture based on quantitation of the ATP present, which signals the presence of metabolically active cells. Following treatment, […]-GlO® is added to treatment wells and incubated at 37° C. Luminescence values were measured at using a Molecular Devices Spectramax microplate reader.
Cells were grown to 70% confluency, trypsinized, counted, and seeded in 96 well flat-bottom plates at a final concentration of 2.5×10^3-5×10^3 cells/well (Day 0). Cells were allowed to incubate in growth media for 24 hours. Treatment with the test agents or standard agents began on Day 1 and continued for 72 hours. At the 72-hour time point, treatment containing media was removed. Viable cell numbers were quantified by the […]-GLO® cell viability assay as described above. Results from these studies were used to calculate an IC50 value (concentration of drug that inhibits cell growth by 50 percent of control) for each compound.
For single agent and combination studies, data from each experiment was collected and expressed as % Cell Growth using the following calculation: % Cell Growth=(ftest/fvehicle)×100
Where ftest is the luminescence of the tested sample, and fvehicle is the luminescence of the vehicle in which the drug is dissolved. Dose response graphs and IC50 values were generated using Prism 6 software (GraphPad) using the following equation: Y=(Top−Bottom)/(1+10^((logIC50-X)−HillSlope))
Where X is the logarithm of the concentration and Y is the response. Y starts at the Bottom and goes to the Top with a sigmoid shape.
The experiments also evaluated the selectivity of the compounds for inhibiting growth of cancer cells carrying a mutation in the Flt3 gene. The MV411 cell line expresses the mutant allele of Flt3 with internal tandem duplications (ITD) of the gene. See Quentmeier et al., “FLT3 Mutations in Acute Myeloid Leukemia Cell Lines,” Leukemia 17(1), 2003, 120-124. […] See Grafone et al., “Monitoring of FLT3 Phosphorylation Status and Its Response to Drugs By Flow Cytometry in AML Blast Cells,” Hematol Oncol. 26(3), 2008, 159-166.

ROCK2, sequence (O75116 whole entry, species assumed): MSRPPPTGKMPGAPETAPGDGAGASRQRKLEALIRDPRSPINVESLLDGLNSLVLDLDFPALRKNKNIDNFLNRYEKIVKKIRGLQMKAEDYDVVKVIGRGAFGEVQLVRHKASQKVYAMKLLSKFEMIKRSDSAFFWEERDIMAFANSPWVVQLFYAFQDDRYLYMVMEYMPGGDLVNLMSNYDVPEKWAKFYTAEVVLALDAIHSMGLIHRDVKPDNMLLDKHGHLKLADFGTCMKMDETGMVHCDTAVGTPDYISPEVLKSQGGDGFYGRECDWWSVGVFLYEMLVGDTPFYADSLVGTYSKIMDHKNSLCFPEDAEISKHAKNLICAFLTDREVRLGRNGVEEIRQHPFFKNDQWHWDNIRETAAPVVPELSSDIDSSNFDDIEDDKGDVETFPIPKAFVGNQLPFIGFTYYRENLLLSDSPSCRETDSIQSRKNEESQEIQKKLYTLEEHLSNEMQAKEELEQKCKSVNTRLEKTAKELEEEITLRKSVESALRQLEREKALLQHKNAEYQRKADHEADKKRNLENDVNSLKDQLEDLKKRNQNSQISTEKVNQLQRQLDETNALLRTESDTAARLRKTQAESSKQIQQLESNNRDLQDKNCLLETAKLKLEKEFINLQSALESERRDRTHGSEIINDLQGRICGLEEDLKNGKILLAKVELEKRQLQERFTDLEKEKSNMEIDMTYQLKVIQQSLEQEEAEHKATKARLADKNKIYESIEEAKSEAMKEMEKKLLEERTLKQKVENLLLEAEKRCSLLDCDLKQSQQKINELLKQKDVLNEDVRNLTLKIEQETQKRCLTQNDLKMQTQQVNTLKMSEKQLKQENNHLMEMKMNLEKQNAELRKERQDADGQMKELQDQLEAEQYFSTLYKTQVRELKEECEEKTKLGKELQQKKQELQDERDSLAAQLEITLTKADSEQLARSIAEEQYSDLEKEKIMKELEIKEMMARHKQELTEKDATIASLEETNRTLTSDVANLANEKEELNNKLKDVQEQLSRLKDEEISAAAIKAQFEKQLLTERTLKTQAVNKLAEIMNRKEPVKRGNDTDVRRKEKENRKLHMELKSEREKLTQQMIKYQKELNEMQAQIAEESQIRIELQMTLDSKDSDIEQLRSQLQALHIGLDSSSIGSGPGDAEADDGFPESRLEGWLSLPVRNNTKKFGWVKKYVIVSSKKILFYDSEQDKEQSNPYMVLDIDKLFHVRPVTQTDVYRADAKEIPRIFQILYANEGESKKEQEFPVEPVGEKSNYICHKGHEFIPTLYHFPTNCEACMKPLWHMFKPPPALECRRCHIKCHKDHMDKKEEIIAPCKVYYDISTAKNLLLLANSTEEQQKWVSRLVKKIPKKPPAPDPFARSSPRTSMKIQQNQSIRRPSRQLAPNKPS
Procedure for ROCK2: The peptide is phosphorylated by the protein kinase ROCK1 or ROCK2. The ROCK1 or ROCK2 enzyme, substrate, and cofactors (ATP and Mg^2+) are combined in a well of a microtiter plate and incubated for 3 hours at 25° C. in the presence or absence of an inhibitor compound. At the end of the incubation, the reaction is quenched by the addition of an EDTA-containing buffer. The substrate and product are separated and quantified electrophoretically using the microfluidic-based LABCHIP® 3000 Drug Discovery System from Caliper Life Sciences (Hopkinton, Mass.).
The components of the assay mixture are:
10 μM Sodium Orthovanadate
10 LM Beta-Glycerophosphate
5 μM ATP (for ROCK1) or 7 μM ATP (for ROCK2)
3 nM ROCK1 or 2.5 nM ROCK2 enzyme
Substrate and product peptides present in each sample are separated electrophoretically using the LABCHIP® 3000 capillary electrophoresis instrument. […] Change in the relative fluorescence intensity of the substrate and product peaks is the parameter measured reflecting enzyme activity. Capillary electrophoregramms (RDA acquisition files) are analyzed using HTS Well Analyzer software (Caliper Life Sciences, Hopkinton, Mass.). The kinase activity in each sample is determined as the product to sum ratio (PSR): P/(S+P), where P is the peak height of the product peptide and S is the peak height of the substrate peptide. For each compound, enzyme activity is measured at various concentrations (12 concentrations of compound spaced by 3× dilution intervals). Negative control samples (0%-inhibition in the absence of inhibitor) and positive control samples (100%-inhibition in the presence of 20 mM EDTA) are assembled in replicates of four and are used to calculate %-inhibition values for each compound at each concentration. Percent inhibition (Pinh) is determined using the following equation: Pinh=(PSRO %−PSRinh)/(PSRO %−PSR100%)*100
where PSRinh is the product sum ratio in the presence of inhibitor, PSRO % is the average product sum ratio in the absence of inhibitor, and PSR100% is the average product sum ratio in 100%-inhibition control samples. The IC50 values of inhibitors are determined by fitting the inhibition curves (Pinh versus inhibitor concentration) by the 4-parameter sigmoidal dose-response model using XLfit 4 software (IBDS).

With `O=C(NC1CCC1)c1cccc([C@@H](CO)NC(=O)c2ccc(-c3ccncc3)cc2)c1` [Compound 48], the IC50 is 1.01 nM against ROCK2; 440 nM in the assay on MV411 cell line (Homo sapiens, MV4-11); over 100000 nM in the assay with K562 cell line (Homo sapiens). Further, the “FLT3-ITD+ Selectivity (K562/MV411)” value with MV411 cell line is given as over 230.
`COc1cccc(CNC(=O)c2cccc([C@@H](CO)NC(=O)c3ccc(-c4ccncc4)cc3)c2)c1` [Compound 65]: the IC50 was determined as 0.6 nM at ROCK2; 70 nM in the assay on MV411 cell line (Homo sapiens, MV4-11); 28000 nM in the assay on K562 cell line (Homo sapiens). In addition, in the assay on MV411 cell line, the “FLT3-ITD+ Selectivity (K562/MV411)” value came to 393.
The like results for `O=C(NC1CCCC1)c1cccc([C@@H](CO)NC(=O)c2ccc(-c3ccncc3)cc2F)c1` [Compound 86] were, in that order, 2.7 nM, 1700 nM, over 100000 nM and over 58.
The like results for `CC(C)NC(=O)c1cccc([C@@H](CO)NC(=O)c2ccc(-c3ccncc3)cc2)c1` [Compound 62] were, in that order, 2.85 nM, 1030 nM, 65000 nM and 63.
As to `COC(=O)N1CCC(NC(=O)c2cccc([C@@H](CO)NC(=O)c3ccc(-c4ccncc4)cc3)c2)CC1` [Compound 90], the concentration for half-maximal inhibition (IC50) against ROCK2 was 0.64 nM; with MV411 cell line, 20 nM; with K562 cell line, over 100000 nM. In the assay on MV411 cell line, the “FLT3-ITD+ Selectivity (K562/MV411)” value is on record as over 5050.
As to `CN1CCC(CNC(=O)c2cccc([C@@H](CO)NC(=O)c3ccc(-c4ccncc4)cc3)c2)CC1` [Compound 23], the IC50 at ROCK2 turned out to be 0.3 nM; in the assay on MV411 cell line (Homo sapiens, MV4-11) it was 90 nM; with K562 cell line (Homo sapiens), 56000 nM. Further, in the assay on MV411 cell line, the “FLT3-ITD+ Selectivity (K562/MV411)” value turned out to be 632.
The like results for `CC(C)N1CCC(NC(=O)c2cccc([C@@H](CO)NC(=O)c3ccc(-c4ccncc4)cc3)c2)CC1` [Compound 55] were, in that order, 0.47 nM, 120 nM, over 100000 nM and over 842.
Consider `O=C(NCC1CCC1)c1cccc([C@@H](CO)NC(=O)c2ccc(-c3ccncc3)cc2)c1` [Compound 66], for which the IC50 on ROCK2 was 0.6 nM; with MV411 cell line (Homo sapiens, MV4-11) it was 130 nM; in the assay on K562 cell line (Homo sapiens) it was 36000 nM. The “FLT3-ITD+ Selectivity (K562/MV411)” value with MV411 cell line is on record as 279.
Turning to `CC(NC(=O)c1ccc(-c2ccncc2)cc1)c1cccc(OCC(=O)NC2CC2)c1` (centres unmarked) [Compound 15], the IC50 was 9 nM on ROCK2; 4000 nM in the assay on MV411 cell line (Homo sapiens, MV4-11); over 100000 nM in the assay on K562 cell line (Homo sapiens). Moreover, in the assay with MV411 cell line, the “FLT3-ITD+ Selectivity (K562/MV411)” value is over 25.
In the case of `COC1(CNC(=O)c2cccc([C@@H](CO)NC(=O)c3ccc(-c4ccncc4)cc3)c2)CCCC1` [Compound 87], the IC50 stood at 0.8 nM at ROCK2; 270 nM in the assay on MV411 cell line (Homo sapiens, MV4-11); 23000 nM with K562 cell line (Homo sapiens). Also, in the assay on MV411 cell line, the “FLT3-ITD+ Selectivity (K562/MV411)” value came out at 85.
The like results for `O=C(NCC1CCN(C2CC2)CC1)c1cccc([C@@H](CO)NC(=O)c2ccc(-c3ccncc3)cc2)c1` [Compound 58] were, in that order, 0.44 nM, 40 nM, over 100000 nM and over 2525.
The like results for `COc1ccc(C(=O)N[C@H](CO)c2cccc(C(=O)Nc3nc4c(s3)CN(C)CC4)c2)cc1C` [Compound 18] were, in that order, 19.6 nM, 15900 nM, over 100000 nM and over 6.
On to `O=C(NC1CCN(CC(F)(F)F)CC1)c1cccc([C@@H](CO)NC(=O)c2ccc(-c3ccncc3)cc2)c1` [Compound 92], for which the IC50 at ROCK2 was 0.68 nM; in the assay on MV411 cell line, 30 nM; in the assay with K562 cell line, over 100000 nM. The “FLT3-ITD+ Selectivity (K562/MV411)” value in the assay on MV411 cell line is recorded as over 3061.
As to `O=C(NCC1CCOCC1)c1cccc([C@@H](CO)NC(=O)c2ccc(-c3ccncc3)cc2)c1` [Compound 22], the IC50 against ROCK2 was 0.57 nM; in the assay with MV411 cell line (Homo sapiens, MV4-11), 3800 nM; in the assay with K562 cell line (Homo sapiens) it was over 100000 nM. The “FLT3-ITD+ Selectivity (K562/MV411)” value in the assay on MV411 cell line is listed as over 27.
The like results for `C[C@@H](NC(=O)c1ccc(-c2ccncc2)cc1)c1cccc(C(=O)NCC2CCN(C)CC2)c1` [Compound 49] were, in that order, 0.3 nM, 20 nM, over 100000 nM and over 5050.
The like results for `CN(C)Cc1ccc(CNC(=O)c2cccc([C@@H](CO)NC(=O)c3ccc(-c4ccncc4)cn3)c2)cc1` [Compound 47] were, in that order, 0.54 nM, 100 nM, 36000 nM and 360.
`O=C(NCc1ccccc1)c1cccc([C@@H](CO)NC(=O)c2ccc(-c3ccncc3)cc2)c1` [Compound 13]: the IC50 on ROCK2 was 1.7 nM; in the assay with MV411 cell line (Homo sapiens, MV4-11), 3000 nM; with K562 cell line (Homo sapiens) it was 27000 nM. The “FLT3-ITD+ Selectivity (K562/MV411)” value in the assay with MV411 cell line was determined as 9.
The like results for `O=C(NC1CCCC1)c1cccc([C@@H](CO)NC(=O)c2ccc(-c3cn[nH]c3)cc2)c1` [Compound 46] were, in that order, 1.88 nM, 90 nM, 11000 nM and 122.
As for `CN(C)CCc1ccc(NC(=O)c2cccc([C@@H](CO)NC(=O)c3ccc(-c4ccncc4)cc3)c2)cc1` [Compound 20], the IC50 amounted to 1.2 nM at ROCK2; 10 nM in the assay on MV411 cell line (Homo sapiens, MV4-11); 16000 nM in the assay with K562 cell line (Homo sapiens). In the assay with MV411 cell line, the “FLT3-ITD+ Selectivity (K562/MV411)” value came to 1585.
The like results for `CC(C)N1CCC(CNC(=O)c2cccc([C@@H](C)NC(=O)c3ccc(-c4ccncc4)cc3)c2)CC1` [Compound 60] were, in that order, 0.53 nM, 40 nM, over 100000 nM and over 2525.
The like results for `O=C(NC1CCCC1)c1cccc([C@@H](CO)NC(=O)c2ccc(-c3ccncc3)cn2)c1` [Compound 51] were, in that order, 4.38 nM, 1450 nM, over 100000 nM and over 70.
The like results for `C[C@@H](NC(=O)c1ccc(-c2ccncc2)cc1)c1cccc(C(=O)Nc2ccc3c(c2)CN(C)CC3)c1` [Compound 6] were, in that order, 1.2 nM, 200 nM, 8000 nM and 40.
Consider `Cc1cc(-c2ccncc2)ccc1C(=O)N[C@H](CO)c1cccc(C(=O)NC2CCCC2)c1` [Compound 88], for which the IC50 on ROCK2 was 7.5 nM; in the assay on MV411 cell line (Homo sapiens, MV4-11) it was 8500 nM; with K562 cell line (Homo sapiens) it was over 100000 nM. In addition, in the assay with MV411 cell line, the “FLT3-ITD+ Selectivity (K562/MV411)” value is over 12.
The like results for `CN(C)C1CCC(NC(=O)c2cccc([C@@H](CO)NC(=O)c3ccc(-c4ccncc4)cc3)c2)CC1` (some centres unmarked) [Compound 52] were, in that order, 0.61 nM, 120 nM, over 100000 nM and over 842.
The like results for `CN(C)CC1(NC(=O)c2cccc([C@@H](CO)NC(=O)c3ccc(-c4ccncc4)cc3)c2)CCCC1` [Compound 74] were, in that order, 27.1 nM, 9120 nM, 74000 nM and 8.
Take `CN(C)C1(CNC(=O)c2cccc([C@@H](CO)NC(=O)c3ccc(-c4ccncc4)cc3)c2)CCCC1` [Compound 72]: the concentration for half-maximal inhibition (IC50) worked out at 0.5 nM against ROCK2; 100 nM in the assay with MV411 cell line (Homo sapiens, MV4-11); 89000 nM in the assay with K562 cell line (Homo sapiens). Further, the “FLT3-ITD+ Selectivity (K562/MV411)” value in the assay on MV411 cell line is 891.
The like results for `O=C(NC1CCC(F)(F)CC1)c1cccc([C@@H](CO)NC(=O)c2ccc(-c3ccncc3)cc2)c1` [Compound 53] were, in that order, 0.66 nM, 220 nM, over 100000 nM and over 459.
The like results for `O=C(NC1CC1)c1cccc([C@@H](CO)NC(=O)c2ccc(-c3ccncc3)cc2)c1` [Compound 12] were, in that order, 1.8 nM, 540 nM, over 100000 nM and over 187.
The like results for `COc1ccc(CNC(=O)c2cccc([C@@H](CO)NC(=O)c3ccc(-c4ccncc4)cc3)c2)cc1` [Compound 85] were, in that order, 0.6 nM, 90 nM, 33000 nM and 368.

In general, IC50 refers to the point on the concentration scale where inhibition reaches its midpoint.
